Laboratory results reported in patent US10653700B2, “Composition comprising a therapeutic agent and a respiratory stimulant and methods for the use thereof” (priority 2015, dated 2020).
Where a name gives a salt, the structure may show the parent alone. Read-outs that look alike come from different tables or passages of the source.

Experiments:
[1] = blood pressure in conscious rats; type: in vivo; details: doses that were moderately respiratory stimulant
[2] = minute volume after intravenous doxapram enantiomers in cynomolgus monkeys; type: in vivo; details: for behavioral side effects (agitation, seizures): monkeys
[3] = minute volume after intravenous doxapram enantiomers in rats; type: in vivo; details: for behavioral side effects (agitation, seizures): rats
[4] = cited from earlier work
[5] = in blood; cited from earlier work
[6] = cited from earlier work; remark: listed apart in the source
[7] = rhesus monkeys; cited from earlier work
AMPA receptor [8] = details: human, in vivo; cited from earlier work
AMPA receptor [9] = details: in vivo; cited from earlier work
[10] = lambs; cited from earlier work
[11] = mice; cited from earlier work
[12] = rat, IV, single dose; cited from earlier work
[13] = cited from earlier work; remark: listed apart in the source
[14] = carotid body denervated rats; cited from earlier work
[15] = intravenous; cited from earlier work
[16] = obstructive sleep apnea, four subjects; cited from earlier work
[17] = humans, severe life-threatening side effects; cited from earlier work
[18] = cited from earlier work; remark: listed apart in the source
[19] = carotid sinus nerve transection; cited from earlier work
[20] = chronic administration, multi-year trials; cited from earlier work
[21] = cited from earlier work; remark: listed apart in the source
[22] = healthy volunteers, room air VE unchanged

In the case of `CCN1CC(CCN2CCOCC2)C(c2ccccc2)(c2ccccc2)C1=O` (centres unmarked) [GAL-054], the “increase in blood pressure above baseline values” [1] is reported as 15-20%, the minute volume ([2]; intravenous, drug naïve and opioid challenged cynomolgus monkeys) is reported as “dose-dependently increased minute volume” and the “behavioral side effects (agitation, seizures)” value (from here on “behavioral side effects”) [2] is reported as “minimal behavioral changes”. The minute volume ([3]; intravenous, drug naïve and opioid challenged rats) was “dose-dependently increased minute volume” and the “behavioral side effects” value [3] was “minimal behavioral changes”.
In the case of `COc1ccc2c3c1O[C@H]1C(=O)CC[C@H]4[C@@H](C2)N(C)CC[C@]314` [hydrocodone], the “blood and plasma concentration” value ([4]; acute, fatal overdose) is given as 100-1,600 μg/L, the “blood and plasma concentration” value ([4]; people taking the drug therapeutically) is given as 5 to 30 µg/L and the “blood and plasma concentration” value ([4]; recreational users) is given as 100 to 200 µg/L. The bound to protein [5] was 20-50%, the serum half-life ([6]; average) was 3.8 h and the “metabolism attributed to non-cytochrome-catalyzed reactions” value ([6]; in vivo) was “Approximately 40%”. The “analgesic potency versus morphine” value [7] was “higher than morphine”.
For `O=C(c1ccc2nonc2c1)N1CCOCC1` [CX717], the “respiratory rate vs. placebo” value (AMPA receptor [8]) is given as “prevented the fall in respiratory rate” and the “effect on respiratory depression” value (AMPA receptor [9]) is given as “able to reverse the respiratory depressive effects”.
For `CCN1CC(CCN2CCOCC2=O)C(c2ccccc2)(c2ccccc2)C1=O` (centres unmarked) [AHR 5955, ketodoxapram], the activity of metabolite [10] is given as “metabolically active in lambs in a dose dependent fashion”.
For `COc1ccc2c3c1O[C@H]1C(=O)CC[C@H]4[C@@H](C2)N(C)CC[C@]314.O=C(O)C(O)C(O)C(=O)O` [hydrocodone bitartrate], the “maximum plasma concentration (Cmax)” value ([4]; after 15 mg hydrocodone to a human subject, depending on formulation) is listed as 1 to 40.
For `CCN1CC(CCN2CCOCC2)C(c2ccccc2)(c2ccccc2)C1=O` (centres unmarked) [GAL-053], the “behavioral side effects” value [2] was “agitation and seizures were restricted to GAL-053” and the “behavioral side effects” value [3] was “agitation and seizures were restricted to GAL-053”.
In the case of `CCN1CC(CCN2CCOCC2)C(c2ccccc2)(c2ccccc2)C1=O` (racemic) [doxapram, 1-ethyl-4-[2-(4-morpholinyl)ethyl]-3,3-diphenyl-2-pyrrolidinone monohydrochloride, monohydrate], the LD50 [11] is given as 85 mg/kg, the LD50 [12] is given as 72 mg/kg and the T1/2 ([13]; 1.5 mg/kg bolus) is given as 3.4 h. The peak in serum ([13]; 1.5 mg/kg bolus) was “around 3 μg/ml”, the peak plasma concentration ([13]; 300 mg oral administration) was 0.96 µg/mL and the peak plasma concentration ([13]; IV infusion 3.5 mg/kg/hr for 2 hours) was 4.0 µg/mL. The T1/2 ([13]; after stop of IV infusion 3.5 mg/kg/hr for 2 hours) was 3.9 h, the “effect on minute ventilation, time span” value ([13]; in vivo) was 0 to 10 min and the “return of minute ventilation to baseline” value ([13]; in vivo) was no more than 15 min. For the same compound, the blood pressure [14] was “increased blood pressure”, the duration of effect [15] was 5 to 12 min and the half-life [15] was 3.4 h. For the same compound, the onset [15] was 20 to 40 s, the peak plasma time [15] was 1 to 2 min and the oxyhemoglobin desaturation events [16] was “decreased the duration and severity”. For the same compound, the therapeutic window [17] was 20-40 fold.
In the case of `CCCNc1nc(NCCC)nc(N(C)OC)n1` [GAL-021], the “VE (AUE 0-1 h)” value ([18]; 1-h continuous infusions) is given as “statistically significant increases”, the “time to half-maximal effect on VE and ETCO2” value ([18]; 1-h continuous infusions) is given as less than 10 min and the “distribution t1/2” value ([18]; after infusion) is given as 0.5 h. The “terminal t1/2” value ([18]; after infusion) was 5 to 7 h and the “reduction of GAL-021-induced respiratory stimulation” value [19] was “about 85%”.
In the case of `C=CCNc1nc(NCC=C)nc(N2CCN(C(c3ccc(F)cc3)c3ccc(F)cc3)CC2)n1` [almitrine, N,N′-Diallyl-6-[4-(4,4′difluorobenzhydryl)piperazin-1-yl]-1,3,5-triazine-2,4-diyldiamine], the LD50 [11] is given as greater than 200 mg/kg, the weight loss [20] is given as greater than 15% and the plasma level at which slope of hypercapnic ventilatory response increased [21, 22] is given as greater than 200 ng/mL. For the same compound, the plasma level at which slope of hypoxic ventilatory response increased [21, 22] was greater than 50 ng/mL and the “increase in VE above baseline” value ([21]; room air, plasma concentrations exceeding approximately 250 μg/ml) was “about 11%”.
